Experimental data from ChEMBL document CHEMBL1817607, “Synthesis and antiplasmodial activity of bicyclic dioxanes as simplified dihydroplakortin analogues” (J Med Chem, 2011).

Legend:
Plasmodium falciparum [1] = assay: Antiplasmodial activity against chloroquine-sensitive Plasmodium falciparum D10 infected in human type A-positive RBC assessed as inhibition of parasite LDH activity after 72 hrs by spectrophotometrically; format: functional, organism-based; conditions: D10, 72 h
Plasmodium falciparum [2] = assay: Antiplasmodial activity against chloroquine-resistant Plasmodium falciparum W2 infected in human type A-positive RBC assessed as inhibition of parasite LDH activity after 72 hrs by spectrophotometric analysis; format: functional, organism-based; conditions: W2, 72 h

SMILES	IC50 (Plasmodium falciparum [1])	IC50 (Plasmodium falciparum [2])
CCC(CC)C[C@]1(C)C[C@@H](CC)[C@@H]([C@H](O)CO)OO1	2.4 µM	1.3 µM
CC(C)C[C@@]12CCO[C@@H]1OOC(C)(C)C2 (racemic)	> 10 µM	> 10 µM
CC(C)Cc1ccccc1[C@H]1C[C@]2(C)CCO[C@@H]2OO1 (racemic)	13 µM	5.7 µM
CCC(CC)C[C@@]1(C)C[C@@H](CC)[C@@H](CC(=O)OC)OO1	0.89 µM	0.64 µM
C[C@@]12CCO[C@@H]1OO[C@@H](c1ccccc1)C2 (racemic)	> 20 µM	> 20 µM
CCC(CC)C[C@@]1(C)C[C@@H](CC)[C@@H]([C@H](O)CO)OO1	1.2 µM	0.84 µM
CCCCCC1(C)C[C@@H]2CCO[C@@H]2OO1 (mixture of isomers)	> 10 µM	> 10 µM
CC[C@@H]1CC(C)(C)OO[C@@H]1[C@H](O)CO	> 10 µM	> 10 µM
CC1(C)C[C@@H]2CCO[C@@H]2OO1 (relative stereo)	> 10 µM	> 10 µM
CC[C@@]12CCO[C@@H]1OOC(C)(C)C2 (racemic)	> 10 µM	> 10 µM
CCc1ccccc1[C@@H]1C[C@]2(C)CCO[C@@H]2OO1 (racemic)	> 20 µM	> 20 µM
CC[C@@H]1CC(C)(C)OO[C@@H]1[C@H](O)COC(C)=O	> 10 µM	> 10 µM
CC1(CC2CCCC2)C[C@]2(C)CCO[C@@H]2OO1 (mixture of isomers)	0.55 µM	0.34 µM
CC1(CC2C3CC4CC(C3)CC2C4)C[C@]2(C)CCO[C@@H]2OO1 (mixture of isomers)	0.23 µM	0.15 µM
CCC(CC)C[C@]1(C)C[C@@H](CC)[C@@H](CC(=O)OC)OO1	2.4 µM	0.87 µM
CC(C)c1ccccc1[C@H]1C[C@]2(C)CCO[C@@H]2OO1 (racemic)	8.3 µM	4.6 µM
CCCCC1(C)C[C@]2(C)CCO[C@@H]2OO1 (mixture of isomers)	2.9 µM	1.4 µM
Cc1ccccc1[C@H]1C[C@]2(C)CCO[C@@H]2OO1 (racemic)	> 20 µM	11 µM
CC1(CC2CCCCC2)C[C@]2(C)CCO[C@@H]2OO1 (mixture of isomers)	0.49 µM	0.36 µM
C[C@@]12CCO[C@@H]1OO[C@H](c1ccccc1)C2 (racemic)	> 20 µM	> 20 µM
Cc1ccccc1[C@@H]1C[C@]2(C)CCO[C@@H]2OO1 (racemic)	> 20 µM	> 20 µM
CCCCC1(C)C[C@@H]2CCO[C@@H]2OO1 (mixture of isomers)	> 10 µM	> 10 µM
CC1(C)C[C@]2(C)CCO[C@@H]2OO1 (racemic)	> 10 µM	> 10 µM
CCc1ccccc1[C@H]1C[C@]2(C)CCO[C@@H]2OO1 (racemic)	15 µM	7.7 µM
CCC(CC)CC1(C)C[C@]2(C)CCO[C@@H]2OO1 (mixture of isomers)	0.76 µM	0.39 µM
CCCCCC1(C)C[C@]2(C)CCO[C@@H]2OO1 (mixture of isomers)	2.9 µM	1.5 µM
CCC(CC)CC1(C)C[C@@H]2CCO[C@@H]2OO1 (mixture of isomers)	> 10 µM	8.6 µM
